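Cultured in 96-well plates, cells were exposed to test compound for 48 hours across five concentrations. TGI is the concentration that stops growth completely.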
How the values were obtained:
Assay in all cases: inhibition of tumour cell growth, NCI panel, 48 h
SNB-78 CNS = test system: SNB-78 CNS
IGROV1 ovarian = test system: IGROV1 ovarian
HS 578T breast = test system: HS 578T breast
SK-MEL-5 melanoma = test system: SK-MEL-5 melanoma
BT-549 breast = test system: BT-549 breast
LOX IMVI melanoma = test system: LOX IMVI melanoma
HOP-18 NSCLC = test system: HOP-18 NSCLC
MDA-MB-231 breast = test system: MDA-MB-231 breast
UO-31 renal = test system: UO-31 renal
LXFL 529 NSCLC = test system: LXFL 529 NSCLC
RPMI-8226 leukemia = test system: RPMI-8226 leukemia
HCT-15 colon = test system: HCT-15 colon
SN12C renal = test system: SN12C renal
SW-620 colon = test system: SW-620 colon
UACC-257 melanoma = test system: UACC-257 melanoma
NCI-H226 lung = test system: NCI-H226 lung
ACHN renal = test system: ACHN renal
HT29 colon = test system: HT29 colon
MCF7 breast = test system: MCF7 breast
OVCAR-4 ovarian = test system: OVCAR-4 ovarian
NCI-H460 lung = test system: NCI-H460 lung
NCI-H522 lung = test system: NCI-H522 lung
T-47D breast = test system: T-47D breast
MALME-3M melanoma = test system: MALME-3M melanoma
M19-MEL melanoma = test system: M19-MEL melanoma
RXF 393 renal = test system: RXF 393 renal
HCT-116 colon = test system: HCT-116 colon
OVCAR-3 ovarian = test system: OVCAR-3 ovarian
HOP-62 NSCLC = test system: HOP-62 NSCLC
MDA-MB-435 = test system: MDA-MB-435
OVCAR-5 ovarian = test system: OVCAR-5 ovarian
SF-539 CNS = test system: SF-539 CNS
HL-60(TB) leukemia = test system: HL-60(TB) leukemia
PC-3 prostate = test system: PC-3 prostate
CCRF-CEM leukemia = test system: CCRF-CEM leukemia
K-562 leukemia = test system: K-562 leukemia
HCC-2998 colon = test system: HCC-2998 colon
A549 NSCLC = test system: A549 NSCLC
MDA-N = test system: MDA-N
SNB-19 CNS = test system: SNB-19 CNS
SR leukemia = test system: SR leukemia
SK-OV-3 ovarian = test system: SK-OV-3 ovarian
KM20L2 colon = test system: KM20L2 colon
SF-268 CNS = test system: SF-268 CNS
EKVX NSCLC = test system: EKVX NSCLC
HOP-92 NSCLC = test system: HOP-92 NSCLC
M14 melanoma = test system: M14 melanoma
OVCAR-8 ovarian = test system: OVCAR-8 ovarian
DU-145 prostate = test system: DU-145 prostate
NCI-H23 lung = test system: NCI-H23 lung
SF-295 CNS = test system: SF-295 CNS
COLO 205 colon = test system: COLO 205 colon
A498 renal = test system: A498 renal
UACC-62 melanoma = test system: UACC-62 melanoma
SK-MEL-2 melanoma = test system: SK-MEL-2 melanoma
TK-10 renal = test system: TK-10 renal
MOLT-4 leukemia = test system: MOLT-4 leukemia
786-0 renal = test system: 786-0 renal
DMS 114 small cell lung = test system: DMS 114 small cell lung
SK-MEL-28 melanoma = test system: SK-MEL-28 melanoma
SNB-75 CNS = test system: SNB-75 CNS
KM12 colon = test system: KM12 colon
U251 CNS = test system: U251 CNS
NCI/ADR-RES ovarian = test system: NCI/ADR-RES ovarian
DMS 273 small cell lung = test system: DMS 273 small cell lung
CAKI-1 renal = test system: CAKI-1 renal

COC1(OC)C2(Cl)C(Cl)=C(Cl)C1(Cl)C1c3ccc(C(C)=O)c4cccc(c34)C12 (stereo unspecified)
TGI (SNB-78 CNS): > 100 µM | TGI (IGROV1 ovarian): > 100 µM | TGI (HS 578T breast): > 100 µM | TGI (SK-MEL-5 melanoma): 27.7 µM | TGI (BT-549 breast): > 100 µM | TGI (LOX IMVI melanoma): > 100 µM | TGI (HOP-18 NSCLC): > 100 µM | TGI (MDA-MB-231 breast): > 100 µM | TGI (UO-31 renal): > 100 µM | TGI (LXFL 529 NSCLC): > 100 µM | TGI (RPMI-8226 leukemia): > 100 µM | TGI (HCT-15 colon): > 100 µM | TGI (SN12C renal): > 100 µM | TGI (SW-620 colon): > 100 µM | TGI (UACC-257 melanoma): > 100 µM | TGI (NCI-H226 lung): 81.4 µM | TGI (ACHN renal): > 87.4 µM | TGI (HT29 colon): > 100 µM | TGI (MCF7 breast): > 100 µM | TGI (OVCAR-4 ovarian): > 100 µM | TGI (NCI-H460 lung): > 80.5 µM | TGI (NCI-H522 lung): > 70.2 µM | TGI (T-47D breast): 99.3 µM | TGI (MALME-3M melanoma): 58 µM | TGI (M19-MEL melanoma): > 100 µM | TGI (RXF 393 renal): > 100 µM | TGI (HCT-116 colon): > 100 µM | TGI (OVCAR-3 ovarian): > 100 µM | TGI (HOP-62 NSCLC): > 100 µM | TGI (MDA-MB-435): 43.5 µM | TGI (OVCAR-5 ovarian): > 100 µM | TGI (SF-539 CNS): > 100 µM | TGI (HL-60(TB) leukemia): 47.3 µM | TGI (PC-3 prostate): > 100 µM | TGI (CCRF-CEM leukemia): > 79.2 µM | TGI (K-562 leukemia): > 100 µM | TGI (HCC-2998 colon): 52.7 µM | TGI (A549 NSCLC): > 100 µM | TGI (MDA-N): 86.6 µM | TGI (SNB-19 CNS): > 100 µM | TGI (SR leukemia): 50.2 µM | TGI (SK-OV-3 ovarian): > 100 µM | TGI (KM20L2 colon): 87.4 µM | TGI (SF-268 CNS): > 100 µM | TGI (EKVX NSCLC): > 100 µM | TGI (HOP-92 NSCLC): 22.1 µM | TGI (M14 melanoma): > 96.4 µM | TGI (OVCAR-8 ovarian): > 100 µM | TGI (DU-145 prostate): > 100 µM | TGI (NCI-H23 lung): > 83 µM | TGI (SF-295 CNS): > 100 µM | TGI (COLO 205 colon): 34.8 µM | TGI (A498 renal): 32.1 µM | TGI (UACC-62 melanoma): > 100 µM | TGI (SK-MEL-2 melanoma): 50.1 µM | TGI (TK-10 renal): > 100 µM | TGI (MOLT-4 leukemia): > 77.6 µM | TGI (786-0 renal): > 100 µM | TGI (DMS 114 small cell lung): > 100 µM | TGI (SK-MEL-28 melanoma): > 100 µM | TGI (SNB-75 CNS): > 89.9 µM | TGI (KM12 colon): > 100 µM | TGI (U251 CNS): 99.9 µM | TGI (NCI/ADR-RES ovarian): > 100 µM | TGI (DMS 273 small cell lung): 20.9 µM | TGI (CAKI-1 renal): > 100 µM

Source: PubChem BioAssay (NCI)
